We go through 27 molecules from patent US20120157471A1, “BENZIMIDAZOLE DERIVATIVES” (PFIZER INC., priority 2009, published 2012).

Assay [1] deals with T1, human Smo (amino acids 181-787) (Homo sapiens, UniProt Q99835).
T1 construct: expressed in transfected cells; membrane preparation
Nature of the assay: Smo radioligand competition binding assay (displacement of 3H-PF-03451358 from HEK293 membranes). Conditions: for inhibition at 0.05 µM: 0.05 μM test compound, displacement of 3H-PF-03451358, read-out: SMO % inh. @ 0.05 μM; for IC50: radioligand competition binding. A digest of the protocol:
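Displacement of 3 nM tritiated PF-03451358 measured by filtration and scintillation counting after 2 h at room temperature, using 40 μg/well HEK293 membranes bearing cell-surface Smo 181-787, pH 7.5 buffer. Specific binding defined against 30 μM unlabelled ligand; IC50 via variable-slope sigmoidal fit.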

Another assay relates to Gli-Luc/MEF cells (Smo). Nature of the assay: Gli-Luc/MEF assay (Shh-stimulated luciferase reporter under the Gli response element). The class given is cell-based, mouse. Conditions: Mus musculus, MEF, 48 h. A digest of the protocol:
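IC50 derived from luminescence (Bright-Glo) after 48 h at 37° C, 5% CO2, with compound at […] (3-fold dilutions) added together with mouse Shh at 2 μg/mL final. Cells: MEFs from Gli-Luc transgenic mice.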
In general terms: In a reporter assay the amount or activity of a reporter protein is the signal.

T1 sequence (Q99835 181-787): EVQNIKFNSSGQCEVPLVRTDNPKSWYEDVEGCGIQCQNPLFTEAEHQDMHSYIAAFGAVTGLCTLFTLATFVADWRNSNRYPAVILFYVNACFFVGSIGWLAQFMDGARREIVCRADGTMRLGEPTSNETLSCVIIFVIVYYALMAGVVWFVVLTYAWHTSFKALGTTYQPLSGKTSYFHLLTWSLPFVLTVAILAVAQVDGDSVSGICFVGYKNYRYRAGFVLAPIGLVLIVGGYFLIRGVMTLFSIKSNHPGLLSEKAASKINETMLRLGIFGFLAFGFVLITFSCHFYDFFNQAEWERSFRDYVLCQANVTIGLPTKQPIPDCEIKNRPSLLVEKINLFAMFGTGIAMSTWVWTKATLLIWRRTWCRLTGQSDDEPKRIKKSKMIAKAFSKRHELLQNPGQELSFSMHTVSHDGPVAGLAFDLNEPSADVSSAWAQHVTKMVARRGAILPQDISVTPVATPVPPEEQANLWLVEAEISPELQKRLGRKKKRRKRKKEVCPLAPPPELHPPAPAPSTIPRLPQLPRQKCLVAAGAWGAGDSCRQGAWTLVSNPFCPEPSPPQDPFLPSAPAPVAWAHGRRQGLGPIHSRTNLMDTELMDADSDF

Take `Cn1c(-c2ccnc(N3CCC(NS(C)(=O)=O)CC3)n2)nc2ccccc21` [Example C-10, N-{1-[4-(1-methyl-1H-benzimidazol-2-yl)pyrimidin-2-yl]piperidin-4-yl}methanesulfonamide]: the inhibition at 0.05 µM in assay [1] came to 97%. In addition, the concentration for half-maximal inhibition (IC50) (in general, the concentration that gives 50% inhibition) turned out to be 44 nM in assay [1] and 57 nM with Gli-Luc/MEF cells (Smo).

Regarding `Cn1c(-c2nc(N3CCC(O)CC3)ncc2Cl)nc2ccccc21` [Example C-11, 1-[5-chloro-4-(1-methyl-1H-benzimidazol-2-yl)pyrimidin-2-yl]piperidin-4-ol], in assay [1], the inhibition at 0.05 µM was 98% and the IC50 stood at 16 nM. In the assay on Gli-Luc/MEF cells (Smo), this molecule had an IC50 of 24 nM.

Regarding `Cn1c(-c2nc(N3CCOCC3)ncc2Cl)nc2ccccc21` [Example C-12, 2-(5-chloro-2-morpholin-4-ylpyrimidin-4-yl)-1-methyl-1H-benzimidazole], in assay [1], the inhibition at 0.05 µM stood at 93% and the IC50 was found to be 47 nM. The molecule further came in with an IC50 in the assay on Gli-Luc/MEF cells (Smo) of 60 nM.

Regarding `Cn1c(-c2nc(N3CCC(S(C)(=O)=O)CC3)ncc2Cl)nc2ccccc21` [Example C-14, 2-{5-chloro-2-[4-(methylsulfonyl)piperidin-1-yl]pyrimidin-4-yl}-1-methyl-1H-benzimidazole], in assay [1], the inhibition at 0.05 µM was found to be 90% and the IC50 was 43 nM. This molecule also returned an IC50 in the assay on Gli-Luc/MEF cells (Smo) of 37 nM.

As to `CN(C)CC(=O)N1CCN(c2ncc(Cl)c(-c3nc4ccccc4n3C)n2)CC1` [Example C-15, 2-{4-[5-chloro-4-(1-methyl-1H-benzimidazol-2-yl)pyrimidin-2-yl]piperazin-1-yl}-N,N-dimethyl-2-oxoethanamine], in assay [1], the inhibition at 0.05 µM came out at 95% and the IC50 stood at 64 nM. Moreover, the IC50 in the assay with Gli-Luc/MEF cells (Smo) came out at 8.9 nM.

For the molecule `COCC(=O)N1CCN(c2ncc(Cl)c(-c3nc4ccccc4n3C)n2)CC1` [Example C-16, 2-{5-chloro-2-[4-(methoxyacetyl)piperazin-1-yl]pyrimidin-4-yl}-1-methyl-1H-benzimidazole], the inhibition at 0.05 µM in assay [1] came out at 99%. Further, the results for the IC50 (in assay [1]; with Gli-Luc/MEF cells (Smo)) were 14 nM and 12.7 nM, respectively.

For `Cn1c(-c2nc(N3CCN(C(=O)CCO)CC3)ncc2Cl)nc2ccccc21` [Example C-17, 3-{4-[5-chloro-4-(1-methyl-1H-benzimidazol-2-yl)pyrimidin-2-yl]piperazin-1-yl}-3-oxopropan-1-ol], in assay [1], the inhibition at 0.05 µM is 98%. The molecule also returned a concentration for half-maximal inhibition (IC50) with Gli-Luc/MEF cells (Smo) of 17.2 nM.

Take `Cn1c(-c2nc(N3CCN(C(=O)CO)CC3)ncc2Cl)nc2ccccc21` [Example C-18, 2-{4-[5-chloro-4-(1-methyl-1H-benzimidazol-2-yl)pyrimidin-2-yl]piperazin-1-yl}-2-oxoethanol]: in assay [1], the inhibition at 0.05 µM was determined as 98% and the IC50 stood at 15 nM. In addition, in the assay on Gli-Luc/MEF cells (Smo), the IC50 amounted to 36 nM.

Take `CC(=O)N1CCN(c2cc(-c3nc4ccccc4n3C)c(F)cn2)CC1` [Example D-1, 2-[2-(4-acetylpiperazin-1-yl)-5-fluoropyridin-4-yl]-1-methyl-1H-benzimidazole]: in assay [1], the inhibition at 0.05 µM worked out at 97% and the IC50 stood at 22 nM. The molecule also yielded an IC50 in the assay with Gli-Luc/MEF cells (Smo) of 27 nM.

Regarding `COC(=O)N1CCN(c2cc(-c3nc4ccccc4n3C)c(F)cn2)CC1` [Example D-2, methyl 4-[5-fluoro-4-(1-methyl-1H-benzimidazol-2-yl)pyridin-2-yl]piperazine-1-carboxylate], in assay [1], the inhibition at 0.05 µM is 95% and the 50% inhibitory concentration (IC50) worked out at 13 nM. The molecule further came in with an IC50 in the assay with Gli-Luc/MEF cells (Smo) of 13 nM.

With `CCNC(=O)N1CCN(c2cc(-c3nc4ccccc4n3C)c(F)cn2)CC1` [Example D-3, N-ethyl-4-[5-fluoro-4-(1-methyl-1H-benzimidazol-2-yl)pyridin-2-yl]piperazine-1-carboxamide], in assay [1], the inhibition at 0.05 µM was 98% and the IC50 came to 8 nM. The molecule further returned an IC50 with Gli-Luc/MEF cells (Smo) of 10 nM.

Take `CCC(=O)N1CCN(c2cc(-c3nc4ccccc4n3C)c(F)cn2)CC1` [Example D-4, 2-[5-fluoro-2-(4-propionylpiperazin-1-yl)pyridin-4-yl]-1-methyl-1H-benzimidazole]: in assay [1], the inhibition at 0.05 µM was determined as 98% and the IC50 is 19 nM. In the assay on Gli-Luc/MEF cells (Smo), the IC50 turned out to be 20 nM.

For `CCS(=O)(=O)N1CCN(c2cc(-c3nc4ccccc4n3C)c(F)cn2)CC1` [Example D-5, 2-{2-[4-(ethylsulfonyl)piperazin-1-yl]-5-fluoropyridin-4-yl}-1-methyl-1H-benzimidazole], in assay [1], the inhibition at 0.05 µM was determined as 97% and the IC50 turned out to be 18 nM. This molecule showed a half-maximal inhibitory concentration (IC50) in the assay with Gli-Luc/MEF cells (Smo) of 17 nM.

As to `Cn1c(-c2cc(N3CCN(S(C)(=O)=O)CC3)ncc2F)nc2ccccc21` [Example D-6, 2-{5-fluoro-2-[4-(methylsulfonyl)piperazin-1-yl]pyridin-4-yl}-1-methyl-1H-benzimidazole], in assay [1], the inhibition at 0.05 µM turned out to be 97% and the IC50 worked out at 12 nM. This molecule also came in with an IC50 in the assay on Gli-Luc/MEF cells (Smo) of 22 nM.

With `CNC(=O)N1CCN(c2cc(-c3nc4ccccc4n3C)c(F)cn2)CC1` [Example D-7, 4-[5-fluoro-4-(1-methyl-1H-benzimidazol-2-yl)pyridin-2-yl]-N-methylpiperazine-1-carboxamide], in assay [1], the inhibition at 0.05 µM turned out to be 88% and the concentration for half-maximal inhibition (IC50) amounted to 47 nM. Moreover, in the assay with Gli-Luc/MEF cells (Smo), the IC50 was found to be 54 nM.

`CCNC(=O)NC1CCN(c2cc(-c3nc4ccccc4n3C)c(F)cn2)CC1` [Example D-8, 1-ethyl-3-{1-[5-fluoro-4-{1-methyl-1H-benzimidazol-2-yl)pyridin-2-yl]piperidin-4-yl}urea]: in assay [1], the inhibition at 0.05 µM came out at 95% and the IC50 came out at 6 nM. The molecule also registered a concentration for half-maximal inhibition (IC50) in the assay on Gli-Luc/MEF cells (Smo) of 6 nM.

Take `CCS(=O)(=O)NC1CCN(c2cc(-c3nc4ccccc4n3C)c(F)cn2)CC1` [Example D-9, N-{1-[5-fluoro-4-(1-methyl-1H-benzimidazol-2-yl)pyridin-2-yl]piperidin-4-yl}ethanesulfonamide]: the inhibition at 0.05 µM in assay [1] is 99%. Moreover, the results for the IC50 (in assay [1]; with Gli-Luc/MEF cells (Smo)) were 5 nM and 3.9 nM, respectively.

Consider `CN(C1CCN(c2cc(-c3nc4ccccc4n3C)c(F)cn2)CC1)S(C)(=O)=O` [Example D-10, N-{1-[5-fluoro-4-(1-methyl-1H-benzimidazol-2-yl)pyridin-2-yl]piperidin-4-yl}-N-methylmethanesulfonamlde], for which, in assay [1], the inhibition at 0.05 µM came to 102% and the IC50 was determined as 7 nM. The same molecule returned an IC50 with Gli-Luc/MEF cells (Smo) of 4 nM.

Consider `Cn1c(-c2cc(N3CCC(NS(C)(=O)=O)CC3)ncc2F)nc2ccccc21` [Example D-11, N-{1-[5-fluoro-4-(1-melhyl-1H-benzimidazol-2-yl)pyridin-2-yl]piperidin-4-yl}methanesulfonamide], for which, in assay [1], the inhibition at 0.05 µM is 98% and the IC50 was determined as 6 nM. 4.2 nM corresponded to half-maximal inhibition with Gli-Luc/MEF cells (Smo) (IC50).

`COC(=O)NC1CCN(c2cc(-c3nc4ccccc4n3C)c(F)cn2)CC1` [Example D-12, methyl {1-[5-fluoro-4-(1-methy-1H-benzimidazol-2-yl)pyridin-2-yl]plpetidin-4-yl}carbamate]: in assay [1], the inhibition at 0.05 µM turned out to be 96% and the half-inhibitory concentration (IC50) turned out to be 8 nM. Half-maximal inhibition with Gli-Luc/MEF cells (Smo) (IC50) required 7.7 nM.

With `CNC(=O)NC1CCN(c2cc(-c3nc4ccccc4n3C)c(F)cn2)CC1` [Example D-13, 1-{1-[5-fluoro-4-(1-methyl-1H-benzimidazol-2-yl)pyridin-2-yl]piperidin-4-yl}-3-methylurea], in assay [1], the inhibition at 0.05 µM is 97% and the IC50 came to 23 nM. This molecule registered an IC50 with Gli-Luc/MEF cells (Smo) of 13.4 nM.

With `CC(=O)NC1CCN(c2cc(-c3nc4ccccc4n3C)c(F)cn2)CC1` [Example D-14, N-{1-[5-fluoro-4-(1-methyl-1H-benzimidazol-2-yl)pyridin-2-yl]piperidin-4-yl}acetamide], in assay [1], the inhibition at 0.05 µM is 97% and the half-inhibitory concentration (IC50) came to 19 nM. In the assay on Gli-Luc/MEF cells (Smo), this molecule displayed an IC50 of 17.2 nM.

For the molecule `Cn1c(-c2cc(N3CCN(S(=O)(=O)CCO)CC3)ncc2F)nc2ccccc21` [Example D-15, 2-({4-[5-fluoro-4-(1-methyl-1H-benzimidazol-2-yl)pyridin-2-yl]piperazin-1-yl}sulfonyl)ethanol], the inhibition at 0.05 µM in assay [1] turned out to be 101%. Besides, the IC50 in assay [1] was 19 nM; in the assay with Gli-Luc/MEF cells (Smo), 11 nM.

Consider `Cn1c(-c2cc(N3CCN(S(=O)(=O)CC(C)(C)O)CC3)ncc2F)nc2ccccc21` [Example D-16, 1-({4-[5-fluoro-4-(1-methyl-1H-benzimidazol-2-yl)pyridin-2-yl]piperazin-1-yl}sulfonyl)-2-methylpropan-2-ol], for which, in assay [1], the inhibition at 0.05 µM amounted to 94% and the IC50 stood at 9 nM. This molecule registered an IC50 with Gli-Luc/MEF cells (Smo) of 3 nM.

Turning to `Cn1c(-c2cc(N3CCN(C(=O)CO)CC3)ncc2F)nc2ccccc21` [Example D-17, 1-{4-[5-fluoro-4-(1-methyl-1H-benzimidazol-2-yl)pyridin-2-yl]piperazin-1-yl}-2-hydroxyethanone], in assay [1], the inhibition at 0.05 µM came out at 96%. The results for the 50% inhibitory concentration (IC50) (in assay [1]; in the assay on Gli-Luc/MEF cells (Smo)) were 15 nM and 13 nM, respectively.

Regarding `Cn1c(-c2cc(N3CCN(C(=O)CCS(C)(=O)=O)CC3)ncc2F)nc2ccccc21` [Example D-18, 1-{4-[5-fluoro-4-(1-methyl-1H-benzimidazol-2-yl)pyridin-2-yl]piperazin-1-yl}-3-(methylsulfonyl)propan-1-one], in assay [1], the inhibition at 0.05 µM is 100% and the 50% inhibitory concentration (IC50) came out at 11 nM. The molecule further displayed an IC50 with Gli-Luc/MEF cells (Smo) of 3 nM.

`Cc1cnc(N2CCC(NS(C)(=O)=O)CC2)cc1-c1nc2ccccc2n1C` [Example E-1, N-{1-[5-methyl-4-(1-methyl-1H-benzimidazol-2-yl)pyridin-2-yl]piperidin-4-yl}methanesulfonamide]: in assay [1], the inhibition at 0.05 µM came out at 98% and the half-inhibitory concentration (IC50) is 19 nM. The molecule further displayed an IC50 in the assay with Gli-Luc/MEF cells (Smo) of 19.8 nM.
